Results published in US9394291B2, “Benzoxazinone amides as mineralocorticoid receptor modulators” (AstraZeneca AB, priority 2014, dated 2016).
Where two headings read alike, the source gives them in different places.

Assays:
human MR LBD [1] = molecular target: T1, human MR LBD (Homo sapiens (Human), UniProt P08235); assay: Mineralocorticoid Binding, Test A1 (SPA beads, 3H-aldosterone displacement); details: displacement of 5 nM 3H-aldosterone, MBP-MR LBD/P23 lysate
[2] = molecular target: T2, MR (UAS-MR-bla HEK293 cells) (Homo sapiens, UniProt P08235); assay: Mineralocorticoid Cellular Reporter Gene Assay, Test B1 (0.25 nM aldosterone)
T2 sequence (P08235 whole entry, looked up, the tested form may be a part): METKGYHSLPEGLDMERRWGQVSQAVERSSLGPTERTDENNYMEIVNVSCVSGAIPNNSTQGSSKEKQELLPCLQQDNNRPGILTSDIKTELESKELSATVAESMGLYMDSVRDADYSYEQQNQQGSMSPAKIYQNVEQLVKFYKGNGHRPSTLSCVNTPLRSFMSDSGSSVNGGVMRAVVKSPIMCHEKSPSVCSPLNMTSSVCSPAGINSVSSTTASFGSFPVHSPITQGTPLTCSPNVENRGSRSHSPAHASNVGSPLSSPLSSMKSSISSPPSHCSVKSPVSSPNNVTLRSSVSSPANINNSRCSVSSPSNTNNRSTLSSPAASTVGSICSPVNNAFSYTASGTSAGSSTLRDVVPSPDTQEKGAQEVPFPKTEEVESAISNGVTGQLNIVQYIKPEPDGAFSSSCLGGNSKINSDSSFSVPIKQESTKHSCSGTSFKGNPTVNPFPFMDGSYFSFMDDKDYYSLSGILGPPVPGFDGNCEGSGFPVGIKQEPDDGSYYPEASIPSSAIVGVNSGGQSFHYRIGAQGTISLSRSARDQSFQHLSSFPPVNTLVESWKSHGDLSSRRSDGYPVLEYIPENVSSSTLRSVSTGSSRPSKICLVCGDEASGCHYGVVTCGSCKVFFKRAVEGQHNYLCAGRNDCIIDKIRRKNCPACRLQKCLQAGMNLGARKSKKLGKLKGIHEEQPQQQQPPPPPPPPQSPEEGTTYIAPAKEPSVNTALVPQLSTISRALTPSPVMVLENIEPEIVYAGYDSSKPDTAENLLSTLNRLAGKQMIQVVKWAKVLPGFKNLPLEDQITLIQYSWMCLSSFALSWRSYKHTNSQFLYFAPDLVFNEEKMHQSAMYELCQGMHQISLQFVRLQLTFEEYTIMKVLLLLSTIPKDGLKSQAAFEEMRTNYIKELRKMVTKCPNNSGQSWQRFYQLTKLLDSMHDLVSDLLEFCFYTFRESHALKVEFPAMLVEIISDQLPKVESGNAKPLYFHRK

human MR LBD [3] = molecular target: T1, human MR LBD; details: read-out: Test A2 IC50; displacement of 5 nM 3H-aldosterone, MBP-MR LBD/P23 lysate, Imaging beads
Description: In order to identify binding to the human MR LBD a scintillation proximity assay (SPA) was adapted to the 384-well format. The MR-LBD (amino acids T729-K985) was expressed as N-terminal fusion with maltose binding protein in Hi5 insect cells by co-infection with recombinant MBP-MR LBD and P23 baculoviruses and crude protein lysate was used in the assay.
Briefly, in Test A1 the assay was run in 384 well format in 10 mM Tris-HCl, pH 7.5, 0.5 mM EDTA 20 mM NaMoO4, 0.1 mM DTT and 10% glycerol at rt. Compounds were tested in a 7 (Test A1) or 10 (Test A2) concentration response curve ranging from 10 nM to 10 μM (Test A1) or 1 nM to 37 μM (Test A2). Compounds were spotted at the bottom of a well of a 384-well PE Opti-Plate to yield final DMSO concentrations in the assay of 2%. Pre-made MBP-MR/P23 lysate: ^3H-aldosterone mix (final assay concentration 7 μg/mL MBP-MR LBD/P23 lysate; 5 nM aldosterone) was added onto the top of the spotted compound and preincubated for 1 h at RT. […] The inhibition of the scintillation signal by displacement of the bound ^3H-aldosterone by test compounds is measured by scintillation counting using a Microbeta Trilux (Wallac) (Test A1) or a by CCD camera detection using a LEADseeker (PerkinElmer) (Test A2).

[4] = molecular target: T2, MR (UAS-MR-bla HEK293 cells); assay: cell-based

T1 sequence (P08235 729-984 limits assumed): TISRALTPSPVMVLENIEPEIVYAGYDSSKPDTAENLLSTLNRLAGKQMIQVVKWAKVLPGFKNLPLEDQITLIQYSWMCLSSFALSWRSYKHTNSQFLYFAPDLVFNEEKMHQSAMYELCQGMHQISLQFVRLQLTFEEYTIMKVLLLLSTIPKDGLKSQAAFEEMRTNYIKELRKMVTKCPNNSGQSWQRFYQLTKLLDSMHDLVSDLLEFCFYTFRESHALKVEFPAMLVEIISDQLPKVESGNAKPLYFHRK

IC50 (human MR LBD [3]) [µM]	IC50 [4] [µM]	SMILES	IC50 (human MR LBD [1]) [µM]	IC50 [2] [µM]	inhibition at 100 µM ([2]; HEK293, read-out: Test B1, % at 100 μM) [%]
		NC(=O)C[C@H]1COc2cc(Br)ccc2N1C(=O)c1ccc2c(c1)NC(=O)CO2 [Example 7, 2-{(3S)-7-Bromo-4-[(3-oxo-3,4-dihydro-2H-1,4-benzoxazin-6-yl)carbonyl]-3,4-dihydro-2H-1,4-benzoxazin-3-yl}acetamide]	0.0095	0.045	
		CNC(=O)C[C@@H]1COc2cc(F)ccc2N1C(=O)c1ccc2c(c1)NC(=O)CO2 [Example 4b, 2-{(3R)-7-Fluoro-4-[(3-oxo-3,4-dihydro-2H-1,4-benzoxazin-6-yl)carbonyl]-3,4-dihydro-2H-1,4-benzoxazin-3-yl}-N-methylacetamide]			35
2.9	0.62	NC(=O)CC1COc2ccccc2N1C(=O)c1ccc2c(c1)NC(=O)CO2 (stereo not shown) [Example 1]	1.4	2.1	
